Assay [1] has as its target T1, Protein kinase C zeta type (Homo sapiens, UniProt Q05513).
T1 sequence (Q05513 whole entry): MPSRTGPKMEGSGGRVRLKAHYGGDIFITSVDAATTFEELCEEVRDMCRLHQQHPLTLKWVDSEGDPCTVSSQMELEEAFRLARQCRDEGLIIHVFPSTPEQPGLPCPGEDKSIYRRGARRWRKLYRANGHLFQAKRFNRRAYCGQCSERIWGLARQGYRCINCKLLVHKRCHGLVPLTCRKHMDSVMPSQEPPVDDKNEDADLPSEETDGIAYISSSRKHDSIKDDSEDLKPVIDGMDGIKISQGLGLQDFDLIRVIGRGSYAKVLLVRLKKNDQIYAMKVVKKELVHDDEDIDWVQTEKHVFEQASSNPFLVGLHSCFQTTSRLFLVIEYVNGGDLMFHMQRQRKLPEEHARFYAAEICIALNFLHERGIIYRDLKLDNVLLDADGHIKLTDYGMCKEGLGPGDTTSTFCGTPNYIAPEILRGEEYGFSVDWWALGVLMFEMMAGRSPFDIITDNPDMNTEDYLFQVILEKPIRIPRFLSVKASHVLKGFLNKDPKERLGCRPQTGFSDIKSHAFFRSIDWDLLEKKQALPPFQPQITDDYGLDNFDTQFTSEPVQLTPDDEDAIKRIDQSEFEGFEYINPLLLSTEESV
The assay is described as follows: Inhibition of PKCzeta in human U937 cells assessed as inhibition of TNF-alpha-induced NF-kB activation by luciferase reporter gene assay. The class given is cell-based, U-937.

In assay [2] the target is T1, Protein kinase C zeta type. The experiment in a line: Inhibition of human PKCzeta assessed as [gamma32P]ATP utilization using myelin basic protein as substrate.
Assay [3] deals with Ribosomal protein S6 kinase beta-1 (Homo sapiens) (UniProt P23443). The assay is described as follows: Inhibition of S6K1 at 50 uM.
Assay [4] concerns the target T2, Protein kinase C iota type (Homo sapiens) (UniProt P41743).
T2 sequence (whole entry): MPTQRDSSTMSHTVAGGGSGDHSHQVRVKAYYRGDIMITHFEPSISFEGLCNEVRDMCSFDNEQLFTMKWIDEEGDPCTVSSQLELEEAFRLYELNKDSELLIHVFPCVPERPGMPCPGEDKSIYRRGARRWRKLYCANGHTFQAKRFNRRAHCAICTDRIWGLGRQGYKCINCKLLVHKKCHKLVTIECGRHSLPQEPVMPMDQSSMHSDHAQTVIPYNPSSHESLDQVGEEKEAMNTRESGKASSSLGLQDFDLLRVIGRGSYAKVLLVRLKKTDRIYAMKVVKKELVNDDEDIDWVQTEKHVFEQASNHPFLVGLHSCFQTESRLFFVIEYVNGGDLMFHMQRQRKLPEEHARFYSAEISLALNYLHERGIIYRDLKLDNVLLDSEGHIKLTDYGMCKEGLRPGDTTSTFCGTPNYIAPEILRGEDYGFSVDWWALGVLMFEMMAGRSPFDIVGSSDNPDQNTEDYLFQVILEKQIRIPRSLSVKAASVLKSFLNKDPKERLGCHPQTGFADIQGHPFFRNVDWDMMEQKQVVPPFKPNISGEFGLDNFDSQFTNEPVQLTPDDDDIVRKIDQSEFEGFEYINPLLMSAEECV
The assay is described as follows: Inhibition of PKCiota at 50 uM.

The target of assay [5] is T2, Protein kinase C iota type (Homo sapiens). The experiment in a line: Inhibition of PKCiota at 200 uM.
Assay [6] deals with T3, Serine/threonine-protein kinase Sgk1 (Homo sapiens) (UniProt O00141).
T3 sequence (whole entry): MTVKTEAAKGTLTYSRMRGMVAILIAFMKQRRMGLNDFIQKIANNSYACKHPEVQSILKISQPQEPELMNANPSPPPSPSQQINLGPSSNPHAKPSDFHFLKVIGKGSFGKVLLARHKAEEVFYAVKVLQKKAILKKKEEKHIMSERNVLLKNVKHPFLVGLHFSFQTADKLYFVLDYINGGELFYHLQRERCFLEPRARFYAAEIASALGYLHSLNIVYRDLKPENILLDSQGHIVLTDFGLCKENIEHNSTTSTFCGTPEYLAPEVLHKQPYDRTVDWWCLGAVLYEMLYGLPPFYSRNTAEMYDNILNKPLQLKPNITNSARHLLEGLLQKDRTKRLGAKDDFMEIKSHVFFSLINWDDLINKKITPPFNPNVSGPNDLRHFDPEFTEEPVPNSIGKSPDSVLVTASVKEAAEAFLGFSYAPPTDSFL
The experiment in a line: Inhibition of SGK at 50 uM.

The nature of assay [7]: Inhibition of PKA at 50 uM.
In assay [8] the target is Serine/threonine-protein kinase N2 (Homo sapiens) (UniProt Q16513). The assay is described as follows: Inhibition of PRK2 at 50 uM.
The target of assay [9] is RAC-alpha serine/threonine-protein kinase (Homo sapiens) (UniProt P31749). The assay is described as follows: Inhibition of PKB-alpha at 50 uM.
Assay [10] has as its target 3-phosphoinositide-dependent protein kinase 1 (Homo sapiens) (UniProt O15530). The experiment in a line: Activation of PDK1 at 50 uM.

Activity calls are given as the source filed them. The rule behind the calls is not given here.

For orientation: IC50 means the concentration that gives 50% inhibition. Broadly, the inhibition is the percentage by which the read-out fell short of the control.

Sequence of 3-phosphoinositide-dependent protein kinase 1 (Homo sapiens) (O15530 whole entry, looked up): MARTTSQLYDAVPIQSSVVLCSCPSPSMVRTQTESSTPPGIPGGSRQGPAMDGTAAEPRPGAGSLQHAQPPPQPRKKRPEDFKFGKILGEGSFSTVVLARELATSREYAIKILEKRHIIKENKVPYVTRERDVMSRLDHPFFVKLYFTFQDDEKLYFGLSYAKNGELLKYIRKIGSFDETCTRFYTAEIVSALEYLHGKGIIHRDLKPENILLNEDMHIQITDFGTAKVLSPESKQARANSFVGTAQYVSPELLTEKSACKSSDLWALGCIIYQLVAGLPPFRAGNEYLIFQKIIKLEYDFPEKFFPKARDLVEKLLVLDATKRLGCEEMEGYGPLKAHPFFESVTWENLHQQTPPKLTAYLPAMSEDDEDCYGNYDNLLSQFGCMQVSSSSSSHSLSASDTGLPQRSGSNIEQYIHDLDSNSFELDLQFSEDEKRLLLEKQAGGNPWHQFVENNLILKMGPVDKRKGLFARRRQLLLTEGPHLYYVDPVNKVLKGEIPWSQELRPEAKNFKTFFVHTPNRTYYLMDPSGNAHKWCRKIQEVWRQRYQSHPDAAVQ
Sequence of Ribosomal protein S6 kinase beta-1 (Homo sapiens) (P23443 whole entry, looked up): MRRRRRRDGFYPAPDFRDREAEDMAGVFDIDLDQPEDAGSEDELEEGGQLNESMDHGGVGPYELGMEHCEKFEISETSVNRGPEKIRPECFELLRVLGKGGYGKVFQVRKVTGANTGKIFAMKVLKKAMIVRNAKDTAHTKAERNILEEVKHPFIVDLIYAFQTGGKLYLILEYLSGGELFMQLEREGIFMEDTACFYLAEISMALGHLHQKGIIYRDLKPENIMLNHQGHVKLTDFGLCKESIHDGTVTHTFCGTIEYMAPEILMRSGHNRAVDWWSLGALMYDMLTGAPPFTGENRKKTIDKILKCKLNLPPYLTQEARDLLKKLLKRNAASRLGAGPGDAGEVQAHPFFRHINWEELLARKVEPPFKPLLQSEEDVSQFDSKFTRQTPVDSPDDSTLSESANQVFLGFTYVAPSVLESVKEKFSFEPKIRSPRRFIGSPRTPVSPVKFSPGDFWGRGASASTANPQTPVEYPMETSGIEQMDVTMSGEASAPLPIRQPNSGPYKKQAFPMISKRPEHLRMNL
Sequence of RAC-alpha serine/threonine-protein kinase (Homo sapiens) (P31749 whole entry): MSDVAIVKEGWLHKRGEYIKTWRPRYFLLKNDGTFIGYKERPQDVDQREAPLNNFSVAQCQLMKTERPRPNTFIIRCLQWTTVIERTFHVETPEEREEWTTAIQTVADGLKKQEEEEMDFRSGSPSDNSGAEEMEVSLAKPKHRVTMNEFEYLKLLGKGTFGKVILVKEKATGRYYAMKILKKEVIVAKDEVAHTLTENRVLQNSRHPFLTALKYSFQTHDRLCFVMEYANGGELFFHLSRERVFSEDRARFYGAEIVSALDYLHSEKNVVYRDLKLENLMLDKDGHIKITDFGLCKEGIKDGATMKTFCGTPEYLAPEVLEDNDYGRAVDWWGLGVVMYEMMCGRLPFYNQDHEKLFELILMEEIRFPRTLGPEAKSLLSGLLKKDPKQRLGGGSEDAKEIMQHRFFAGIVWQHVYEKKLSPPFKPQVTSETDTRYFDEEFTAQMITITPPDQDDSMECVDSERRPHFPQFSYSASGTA
Sequence of Serine/threonine-protein kinase N2 (Homo sapiens) (Q16513 whole entry, looked up): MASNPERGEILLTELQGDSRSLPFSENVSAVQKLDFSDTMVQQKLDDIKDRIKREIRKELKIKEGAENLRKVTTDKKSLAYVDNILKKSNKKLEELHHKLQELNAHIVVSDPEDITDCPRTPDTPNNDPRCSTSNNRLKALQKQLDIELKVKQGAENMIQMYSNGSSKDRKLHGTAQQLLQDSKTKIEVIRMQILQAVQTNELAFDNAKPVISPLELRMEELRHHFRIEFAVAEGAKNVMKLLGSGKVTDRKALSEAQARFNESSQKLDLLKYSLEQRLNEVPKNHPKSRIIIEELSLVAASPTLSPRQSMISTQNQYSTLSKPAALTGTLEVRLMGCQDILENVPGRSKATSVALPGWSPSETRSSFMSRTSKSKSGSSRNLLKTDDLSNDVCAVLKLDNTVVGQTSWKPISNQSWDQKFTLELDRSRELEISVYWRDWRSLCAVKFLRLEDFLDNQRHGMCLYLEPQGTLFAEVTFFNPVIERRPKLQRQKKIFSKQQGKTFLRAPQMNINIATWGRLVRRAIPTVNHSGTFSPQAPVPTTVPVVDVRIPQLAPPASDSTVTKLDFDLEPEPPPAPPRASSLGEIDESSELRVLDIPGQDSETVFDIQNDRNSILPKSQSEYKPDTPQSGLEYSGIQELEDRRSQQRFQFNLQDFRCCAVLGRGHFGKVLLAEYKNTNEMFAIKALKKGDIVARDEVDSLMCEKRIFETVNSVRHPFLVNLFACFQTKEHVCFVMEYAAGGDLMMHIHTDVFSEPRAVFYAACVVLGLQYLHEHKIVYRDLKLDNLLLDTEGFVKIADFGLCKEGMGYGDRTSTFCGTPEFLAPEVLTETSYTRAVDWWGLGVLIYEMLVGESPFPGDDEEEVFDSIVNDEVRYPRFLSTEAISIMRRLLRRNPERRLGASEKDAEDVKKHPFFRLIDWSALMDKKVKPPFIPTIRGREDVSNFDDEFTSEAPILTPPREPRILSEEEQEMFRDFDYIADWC

Take `CC(C)(C)c1ccc(C(CC(=O)O)Cc2nc3ccc(I)cc3[nH]2)cc1` (racemic): the IC50 in [1] was determined as 13 µM; in assay [2] it was 23 µM.

As for `O=C(O)CC(Cc1nc2cc(-c3ccccc3)ccc2[nH]1)c1ccc(Cl)cc1` (racemic), in assay [3], the inhibition came out at 60%.

Turning to `CCCc1ccc(C(CC(=O)O)Cc2nc3cc(I)ccc3[nH]2)cc1` (racemic), the inhibition result in [4] and in assay [5] was “inactive” in each case. The inhibition result in assay [6], in assay [7], in [8] and in assay [9] was “Active” each time. The molecule also returned an inhibition in [3] of 60%.

As for `CC(C)(C)c1ccc(C(CC(=O)O)Cc2nc3cc(I)ccc3[nH]2)cc1` (racemic), the inhibition in [6] amounted to 30%.

`O=C(O)CC(Cc1nc2cc(Cl)ccc2[nH]1)c1ccc(Cl)cc1Cl` (racemic) displayed a fold change (FC) in assay [10] of 3.

For the molecule `O=C(O)CC(Cc1nc2cc(Cl)c(F)cc2[nH]1)c1ccc(Cl)cc1` (racemic), the fold change (FC) in assay [10] was 3.

The values above are taken from ChEMBL document CHEMBL1828625, “4-benzimidazolyl-3-phenylbutanoic acids as novel PIF-pocket-targeting allosteric inhibitors of protein kinase PKCζ” (J Med Chem, 2011).
